According to patent publication US20180153995A1, “USE OF ANTIMICROBIAL POLYMERS FOR RE-SENSITIZATION OF MICROORGANISMS UPON EMERGENCE OF RESISTANCE TO ANTI-MICROBIAL AGENTS” (Technion Research & Development Foundation Limited, priority 2008, published 2018):
Converted amounts (≈) assume the structure as drawn. Numbered stars: 1 amine (or outer) side, 2 acyl side, 3 side chain; on linkers, the order of the positions; unused ones are H or OH. Square brackets hold non-standard residues; d marks the D form. Peptide text beside a SMILES is read from it. * marks the point of attachment. NH(CH2)9CO = O=C(CCCCCCCCCN[*:1])[*:2]; Lauroyl = CCCCCCCCCCCC(=O)*

Experiments:
S. aureus ATCC 29213 = test: microbe, parasite or virus in culture
Method: In parallel, MIC evolution was compared concomitantly for each new sub-culture, using bacteria harvested from control wells (wells cultured without antimicrobial agent from the previous sub-culture). The relative MIC was calculated for each experiment from the ratio of MIC obtained for subculture “n” to that obtained for first-time exposure.
The relative MIC was determined as the normalized ratio of the MIC obtained for a given subculture to the MIC of the control.
MICs were determined by microdilution susceptibility testing in 96-well plates using inocula of 10^5 bacteria per ml. Cell populations were evaluated by optical density measurements at 600 nm and were calibrated against a set of standards.
In parallel, MIC evolution was compared concomitantly for each new generation, using bacteria harvested from control wells (wells cultured without antimicrobial agent from the previous generation). The relative MIC was calculated for each experiment from the ratio of MIC obtained for subculture “n” to that obtained for first-time exposure. […] MICs were determined by microdilution susceptibility testing in 96-well plates. Cell populations were evaluated by optical density measurements at 600 nm and were calibrated against a set of standards.

MRSA 15903 = test: microbe, parasite or virus in culture; type: cell-based, Staphylococcus aureus
Method: (§1) The fractionary inhibitory (FIC) concentration index for combinations of two antimicrobial agents was calculated as follows: FIC index=FICA+FICB=A/MICA+B/MICB where A and B are the MIC values of agent A and agent B in the combination, MICA and MICB are the MICs of agent A and agent B alone, and FICA and FICB are the FICs of agent A and agent B.
(§2) The FIC indexes were interpreted as follows: less than 0.5 indicates a clear re-sensitizing effect; from 0.5 to 4 indicates a marginal or null re-sensitizing effect; and over 4 indicates antagonism.
Experimental data for FIG. 4 were obtained as follows.

ATCC 25923 = test: microbe, parasite or virus in culture; type: cell-based, Staphylococcus aureus; settings: ATCC 25923
Method: (§3) MICs were determined by microdilution susceptibility testing in 96-well plates (by Nunc) using inocula of 10^5 bacteria per ml. Cell populations were evaluated by optical density measurements at 620 nm and were calibrated against a set of standards. Hundred (100) μl of a bacterial suspension were added to 100 μl of culture medium (control) or to 100 μl of culture medium containing various polymer concentrations in 2-fold serial dilutions. Inhibition of proliferation was determined by optical density measurements at 620 nm after an incubation period of 24 hours at 37° C.

MRSA 15852 = type: cell-based, Staphylococcus aureus; settings: 15852
Method: as §1, §2

MRSA 15918 = test: microbe, parasite or virus in culture; type: cell-based, Staphylococcus aureus; settings: 15918
Method: as §3, §1, §2

ATCC 29213 = test: microbe, parasite or virus in culture; type: cell-based, Staphylococcus aureus; settings: ATCC 29213
Method: as §3, §1, §2

E. coli 16327 = test: microbe, parasite or virus in culture; settings: 16327
Method: as §3
100 μl of a bacterial suspension were added to 100 μl of culture medium (control) or to 100 μl of culture medium containing various antibiotic and C14(9-ene)KKNC12KNH2 (SEQ ID NO: 5) concentrations in 2-fold serial dilutions. Inhibition of proliferation was determined by optical density measurements at 620 nm after an incubation period of 24 hours at 37° C.

[1] = test system: E. coli K-12 resistant wild type; type: cell-based, Escherichia coli; settings: E. coli K-12 multi-resistant wild type
[2] = test system: E. coli K-12 efflux knockout mutant; type: cell-based, Escherichia coli; settings: E. coli K-12 strain with decreased levels of efflux pumps
Method: as §3

E. coli CI14213 = type: cell-based, Escherichia coli
Method: as §3

Escherichia coli strains = type: cell-based; settings: isogenic pair of E. coli K-12 strains
Method: as §3

[3] = test system: various strains of S. aureus, E. coli P. aeruginosa, P. mirabilis and S. maltophila; type: cell-based; settings: strain not stated
Method: Antibacterial activity was determined using various strains of S. aureus, E. coli P. aeruginosa, P. mirabilis and S. maltophila, cultured in LB medium (10 grams/liter trypton, 5 grams/liter yeast extract, 5 grams/liter NaCl, pH 7.4). Bacterial strains include susceptible strains of Staphylococcus aureus, Pseudomonas aeruginosa, Bacillus cereus and Escherichia coli (ATCC, American Type Culture Collection), as well as antibiotic-resistant strains such as oxacillin-resistant Staphylococcus aureus (ORSA) and methicillin-resistant Staphylococcus aureus (MRSA).
as §3

CCCCCCC=CCCCC(=O)N[C@@H](CCCCN)C(=O)N[C@@H](CCCCN)C(=O)NCCCCCCCCCCCC(=O)N[C@@H](CCCCN)C(N)=O [C12(5-ene)KKNC12KNH2] was tested, and the “mean polymer's MIC” value (S. aureus ATCC 29213; ATCC 29213) was 4.9 µg/mL, the “effect on relative MIC of now-resistant strain” value (S. aureus ATCC 29213; now-resistant ATCC 29213, polymer alone or oxacillin + sub-MIC polymer) was “decreased the relative MIC” and the MIC (MRSA 15903; 15903) was 3.1 to 6.2 µM. For the same molecule, the MIC of polymer (MRSA 15903; 15903) was 6.2 µM, the “fractionary inhibitory concentration (FIC) index” value (MRSA 15903; MRSA 15903, oxacillin + polymer at optimal concentration 2.1 μM) was 0.35 and the “optimal re-sensitization polymer concentration” value (MRSA 15903; MRSA 15903, with oxacillin) was 2.1 µM. For the same molecule, the MIC (ATCC 25923) was 3.1 µM (≈ 2.42 µg/mL), the MIC (MRSA 15852) was 6.2 µM and the MIC (MRSA 15918) was 6.2 µM. It also gave an MIC (ATCC 29213) of 6.2 µM.

In the case of CCCCCCCCCCCC(=O)N[C@@H](CCCCN)C(=O)N[C@@H](CCCCN)C(=O)NCCCCCCCCCC(=O)N[C@@H](CCCCN)C(=O)N[C@@H](CCCCN)C(=O)NCCCCCCCCCC(=O)N[C@@H](CCCCN)C(=O)N[C@@H](CCCCN)C(=O)NCCCCCCCCCC(=O)N[C@@H](CCCCN)C(N)=O [C12K(KNC10K)3NH2] (Lauroyl-KK[NH(CH2)9CO]KK[NH(CH2)9CO]KK[NH(CH2)9CO]K-NH2), the MIC of polymer (MRSA 15903; 15903) is reported as 6.25 µM and the MIC of polymer (E. coli 16327) is reported as 3.1 µM.

CCCCCCCCCCCC(=O)N[C@@H](CCCCN)C(=O)NCCCCCCCC(=O)N[C@@H](CCCCN)C(=O)NCCCCCCCC(=O)N[C@@H](CCCCN)C(=O)NCCCCCCCC(=O)N[C@@H](CCCCN)C(=O)NCCCCCCCC(=O)N[C@@H](CCCCN)C(=O)NCCCCCCCC(=O)N[C@@H](CCCCN)C(N)=O [C12K(NC8K)5NH2] was tested, and the “effect of polymer on antibiotics potency” value [1] was “enhanced antibiotics potency”, the “effect of polymer on antibiotic MICs” value [2] was “not altered significantly” and the MIC of polymer (E. coli CI14213; CI14213) was 6.2 µM. For the same molecule, the “re-sensitizing effect of polymer on oxacillin” value (E. coli CI14213; E. coli CI14213, polymer well below MIC (up to ⅛ MIC), 24 hours) was “endowed potency to oxacillin” and the MIC of polymer (Escherichia coli strains) was 3.125 µg/mL.

With CCCCC=CCCCCCCCC(=O)N[C@@H](CCCCN)C(=O)N[C@@H](CCCCN)C(=O)NCCCCCCCCCCCC(=O)N[C@@H](CCCCN)C(N)=O [C14(9-ene)KKNC12KNH2] the “MIC of polymer per se” value [3] was 6.2 µM.

CCCCCCC=CCCCCCCCC(=O)N[C@@H](CCCCN)C(=O)N[C@@H](CCCCN)C(=O)NCCCCCCCCCCCC(=O)N[C@@H](CCCCN)C(N)=O [C16(9-ene)KKNC12KNH2] was tested, and the “MIC of polymer per se” value [3] was 6.2 µM.
